Experimental data: US20170224662A1 (priority 2016, published 2017)
Marks after values point to notes of the source that are not given here.

Assay: Binary excipient screening: stability of CPMM 1 mg/mL in IV-compatible excipient solutions in 10 mM pH 3 phosphate buffer
Format: physicochemical
Details: for CPMM % Purity: t = 0
Method: CPMM was evaluated for compatibility with excipients that are suitable for IV administration. A buffer solution (phosphate at pH 3) was selected as the diluent for excipient screening studies. […] CPMM was solubilized in each excipient solution at 1 mg/mL.
While CPMM completely dissolved in the control sample within several minutes, many of the excipient solutions required overnight storage at 5° C. to solubilize the drug.
Each excipient sample solution was placed on a two-week stability study at 25° C./60% relative humidity and 40° C./75% relative humidity, and analyzed for CPMM purity at t=0, 1, and 2 weeks by comparing individual samples to their respective excipient blank solution.

Compound: COC(=O)C1(OC(=O)c2cncn2[C@H](C)c2ccccc2)CC1 [CPMM, 1-(methoxycarbonyl)cyclopropyl-1-[(1R)-1-phenylethyl]-1H-imidazole-5-carboxylate]
- Change in CPMM % Purity (Ascorbic Acid 0.5% in pH 3 buffer, 1 week 25° C./60% RH): −14.4%
- Change in CPMM % Purity (Ascorbic Acid 0.5% in pH 3 buffer, 1 week 40° C./75% RH): −31.6%
- Change in CPMM % Purity (Ascorbic Acid 0.5% in pH 3 buffer, 2 weeks 25° C./60% RH): −26.4%
- Change in CPMM % Purity (Ascorbic Acid 0.5% in pH 3 buffer, 2 weeks 40° C./75% RH): −49.8%
- CPMM % Purity (Ascorbic Acid 0.5% in pH 3 buffer): 97.6%
- Change in CPMM % Purity (Ascorbic Acid/Edetate Disodium Dihydrate 0.5%/0.05% in pH 3 buffer, 1 week 25° C./60% RH): −2.2%
- Change in CPMM % Purity (Ascorbic Acid/Edetate Disodium Dihydrate 0.5%/0.05% in pH 3 buffer, 1 week 40° C./75% RH): −9.8%
- Change in CPMM % Purity (Ascorbic Acid/Edetate Disodium Dihydrate 0.5%/0.05% in pH 3 buffer, 2 weeks 25° C./60% RH): −4.2%
- Change in CPMM % Purity (Ascorbic Acid/Edetate Disodium Dihydrate 0.5%/0.05% in pH 3 buffer, 2 weeks 40° C./75% RH): −17.8%
- CPMM % Purity (Ascorbic Acid/Edetate Disodium Dihydrate 0.5%/0.05% in pH 3 buffer): 99.4%
- Change in CPMM % Purity (Control: Water, 1 week 25° C./60% RH): −0.9%
- Change in CPMM % Purity (Control: Water, 1 week 40° C./75% RH): −3.4%
- CPMM % Purity (Control: Water): 99.4%
- Change in CPMM % Purity (Control: pH 3 Buffer, 1 week 25° C./60% RH): −1.6%
- Change in CPMM % Purity (Control: pH 3 Buffer, 1 week 40° C./75% RH): −5.3%
- Change in CPMM % Purity (Control: pH 3 Buffer, 2 weeks 25° C./60% RH): −2.6%
- Change in CPMM % Purity (Control: pH 3 Buffer, 2 weeks 40° C./75% RH): −9.2%
- CPMM % Purity (Control: pH 3 Buffer): 99.5%
- Change in CPMM % Purity (Dextrose 5% in pH 3 buffer, 1 week 25° C./60% RH): −1.5%
- Change in CPMM % Purity (Dextrose 5% in pH 3 buffer, 1 week 40° C./75% RH): −5.2%
- Change in CPMM % Purity (Dextrose 5% in pH 3 buffer, 2 weeks 25° C./60% RH): −2.5%
- Change in CPMM % Purity (Dextrose 5% in pH 3 buffer, 2 weeks 40° C./75% RH): −9.0%
- CPMM % Purity (Dextrose 5% in pH 3 buffer): 99.4%
- Change in CPMM % Purity (Ethanol 10% in pH 3 buffer, 1 week 25° C./60% RH): −1.1%
- Change in CPMM % Purity (Ethanol 10% in pH 3 buffer, 1 week 40° C./75% RH): −3.2%
- Change in CPMM % Purity (Ethanol 10% in pH 3 buffer, 2 weeks 25° C./60% RH): −3.1%
- Change in CPMM % Purity (Ethanol 10% in pH 3 buffer, 2 weeks 40° C./75% RH): −7.0%
- CPMM % Purity (Ethanol 10% in pH 3 buffer): 99.5%
- Change in CPMM % Purity (Glycerol 10% in pH 3 buffer, 1 week 25° C./60% RH): −1.3%
- Change in CPMM % Purity (Glycerol 10% in pH 3 buffer, 1 week 40° C./75% RH): −4.7%
- Change in CPMM % Purity (Glycerol 10% in pH 3 buffer, 2 weeks 25° C./60% RH): −3.6%
- Change in CPMM % Purity (Glycerol 10% in pH 3 buffer, 2 weeks 40° C./75% RH): −9.8%
- CPMM % Purity (Glycerol 10% in pH 3 buffer): 99.4%
- Change in CPMM % Purity (HPβCD 10% in pH 3 buffer, 1 week 25° C./60% RH): −0.4%
- Change in CPMM % Purity (HPβCD 10% in pH 3 buffer, 1 week 40° C./75% RH): −1.6%
- Change in CPMM % Purity (HPβCD 10% in pH 3 buffer, 2 weeks 25° C./60% RH): −0.6%
- Change in CPMM % Purity (HPβCD 10% in pH 3 buffer, 2 weeks 40° C./75% RH): −2.5%
- CPMM % Purity (HPβCD 10% in pH 3 buffer): 99.4%
- Change in CPMM % Purity (KCl 5% in pH 3 buffer, 1 week 25° C./60% RH): −1.3%
- Change in CPMM % Purity (KCl 5% in pH 3 buffer, 1 week 40° C./75% RH): −4.8%
- Change in CPMM % Purity (KCl 5% in pH 3 buffer, 2 weeks 25° C./60% RH): −2.2%
- Change in CPMM % Purity (KCl 5% in pH 3 buffer, 2 weeks 40° C./75% RH): −8.2%
- CPMM % Purity (KCl 5% in pH 3 buffer): 99.4%
- Change in CPMM % Purity (Lutrol F68 1% in pH 3 buffer, 1 week 25° C./60% RH): −1.6%
- Change in CPMM % Purity (Lutrol F68 1% in pH 3 buffer, 1 week 40° C./75% RH): −5.2%
- Change in CPMM % Purity (Lutrol F68 1% in pH 3 buffer, 2 weeks 25° C./60% RH): −2.5%
- Change in CPMM % Purity (Lutrol F68 1% in pH 3 buffer, 2 weeks 40° C./75% RH): −9.0%
- CPMM % Purity (Lutrol F68 1% in pH 3 buffer): 99.5%
- Change in CPMM % Purity (Mannitol 5% in pH 3 buffer, 1 week 25° C./60% RH): −1.5%
- Change in CPMM % Purity (Mannitol 5% in pH 3 buffer, 1 week 40° C./75% RH): −5.2%
- Change in CPMM % Purity (Mannitol 5% in pH 3 buffer, 2 weeks 25° C./60% RH): −2.6%
- Change in CPMM % Purity (Mannitol 5% in pH 3 buffer, 2 weeks 40° C./75% RH): −9.1%
- CPMM % Purity (Mannitol 5% in pH 3 buffer): 99.4%
- Change in CPMM % Purity (NaCl 5% in pH 3 buffer, 1 week 25° C./60% RH): −1.1%
- Change in CPMM % Purity (NaCl 5% in pH 3 buffer, 1 week 40° C./75% RH): −4.0%
- Change in CPMM % Purity (NaCl 5% in pH 3 buffer, 2 weeks 25° C./60% RH): −1.9%
- Change in CPMM % Purity (NaCl 5% in pH 3 buffer, 2 weeks 40° C./75% RH): −7.2%
- CPMM % Purity (NaCl 5% in pH 3 buffer): 99.4%
- Change in CPMM % Purity (PEG 400 10% in pH 3 buffer, 1 week 25° C./60% RH): −1.2%
- Change in CPMM % Purity (PEG 400 10% in pH 3 buffer, 1 week 40° C./75% RH): −4.0%
- Change in CPMM % Purity (PEG 400 10% in pH 3 buffer, 2 weeks 25° C./60% RH): −2.0%
- Change in CPMM % Purity (PEG 400 10% in pH 3 buffer, 2 weeks 40° C./75% RH): −7.0%
- CPMM % Purity (PEG 400 10% in pH 3 buffer): 99.5%
- CPMM % Purity (PVP K17 5% in pH 3 buffer, excipient peak co-elutes with several related substances, not accounted for): 99.6%*
- Change in CPMM % Purity (Polysorbate 20 1% in pH 3 buffer, 1 week 25° C./60% RH): −1.4%
- Change in CPMM % Purity (Polysorbate 20 1% in pH 3 buffer, 1 week 40° C./75% RH): −4.6%
- Change in CPMM % Purity (Polysorbate 20 1% in pH 3 buffer, 2 weeks 25° C./60% RH): −2.1%
- Change in CPMM % Purity (Polysorbate 20 1% in pH 3 buffer, 2 weeks 40° C./75% RH): −8.1%
- CPMM % Purity (Polysorbate 20 1% in pH 3 buffer): 99.4%
- Change in CPMM % Purity (Polysorbate 80 1% in pH 3 buffer, 1 week 25° C./60% RH, may be due to excipient impurities): −4.2%^†
- Change in CPMM % Purity (Polysorbate 80 1% in pH 3 buffer, 1 week 40° C./75% RH, may be due to excipient impurities): −8.3%^†
- Change in CPMM % Purity (Polysorbate 80 1% in pH 3 buffer, 2 weeks 25° C./60% RH, may be due to excipient impurities): −5.2%^†
- Change in CPMM % Purity (Polysorbate 80 1% in pH 3 buffer, 2 weeks 40° C./75% RH, may be due to excipient impurities): −15.0%^†
- CPMM % Purity (Polysorbate 80 1% in pH 3 buffer): 99.4%
- Change in CPMM % Purity (Propylene Glycol 10% in pH 3 buffer, 1 week 25° C./60% RH): −1.2%
- Change in CPMM % Purity (Propylene Glycol 10% in pH 3 buffer, 1 week 40° C./75% RH): −4.0%
- Change in CPMM % Purity (Propylene Glycol 10% in pH 3 buffer, 2 weeks 25° C./60% RH): −1.9%
- Change in CPMM % Purity (Propylene Glycol 10% in pH 3 buffer, 2 weeks 40° C./75% RH): −6.9%
- CPMM % Purity (Propylene Glycol 10% in pH 3 buffer): 99.4%
- Change in CPMM % Purity (SBECD 10% in pH 3 buffer, 1 week 25° C./60% RH): −0.4%
- Change in CPMM % Purity (SBECD 10% in pH 3 buffer, 1 week 40° C./75% RH): −1.3%
- Change in CPMM % Purity (SBECD 10% in pH 3 buffer, 2 weeks 25° C./60% RH): −0.4%
- Change in CPMM % Purity (SBECD 10% in pH 3 buffer, 2 weeks 40° C./75% RH): −2.1%
- CPMM % Purity (SBECD 10% in pH 3 buffer): 99.4%
- Change in CPMM % Purity (Sodium Bisulfite 0.5% in pH 3 buffer, 1 week 25° C./60% RH): −1.9%
- Change in CPMM % Purity (Sodium Bisulfite 0.5% in pH 3 buffer, 1 week 40° C./75% RH): −7.2%
- Change in CPMM % Purity (Sodium Bisulfite 0.5% in pH 3 buffer, 2 weeks 25° C./60% RH): −3.2%
- Change in CPMM % Purity (Sodium Bisulfite 0.5% in pH 3 buffer, 2 weeks 40° C./75% RH): −12.2%
- CPMM % Purity (Sodium Bisulfite 0.5% in pH 3 buffer): 99.4%
- Change in CPMM % Purity (Solutol HS15 1% in pH 3 buffer, 1 week 25° C./60% RH): −1.3%
- Change in CPMM % Purity (Solutol HS15 1% in pH 3 buffer, 1 week 40° C./75% RH): −4.2%
- Change in CPMM % Purity (Solutol HS15 1% in pH 3 buffer, 2 weeks 25° C./60% RH): −2.1%
- Change in CPMM % Purity (Solutol HS15 1% in pH 3 buffer, 2 weeks 40° C./75% RH): −7.3%
- CPMM % Purity (Solutol HS15 1% in pH 3 buffer): 99.4%
- Change in CPMM % Purity (Sorbitol 5% in pH 3 buffer, 1 week 25° C./60% RH): −1.3%
- Change in CPMM % Purity (Sorbitol 5% in pH 3 buffer, 1 week 40° C./75% RH): −4.5%
- Change in CPMM % Purity (Sorbitol 5% in pH 3 buffer, 2 weeks 25° C./60% RH): −2.3%
- Change in CPMM % Purity (Sorbitol 5% in pH 3 buffer, 2 weeks 40° C./75% RH): −8.3%
- CPMM % Purity (Sorbitol 5% in pH 3 buffer): 99.5%
- Change in CPMM % Purity (Sucrose 5% in pH 3 buffer, 1 week 25° C./60% RH): −1.5%
- Change in CPMM % Purity (Sucrose 5% in pH 3 buffer, 1 week 40° C./75% RH): −5.2%
- Change in CPMM % Purity (Sucrose 5% in pH 3 buffer, 2 weeks 25° C./60% RH): −2.5%
- Change in CPMM % Purity (Sucrose 5% in pH 3 buffer, 2 weeks 40° C./75% RH): −9.0%
- CPMM % Purity (Sucrose 5% in pH 3 buffer): 99.4%
- Change in CPMM % Purity (Trehalose 5% in pH 3 buffer, 1 week 25° C./60% RH): −1.3%
- Change in CPMM % Purity (Trehalose 5% in pH 3 buffer, 1 week 40° C./75% RH): −4.6%
- Change in CPMM % Purity (Trehalose 5% in pH 3 buffer, 2 weeks 25° C./60% RH): −2.3%
- Change in CPMM % Purity (Trehalose 5% in pH 3 buffer, 2 weeks 40° C./75% RH): −8.4%
- CPMM % Purity (Trehalose 5% in pH 3 buffer): 99.4%
